The text below walks through data of patent US20240180889A1, “COMBINATION THERAPY FOR COVID-19 VACCINATION” (priority 2021, published 2024).

One experiment has as its system MDA-MB-231 cells. Format: cell-based, human.
The subject of experiment [1] is Tartrate Resistant Acid Phosphatase (TRAP) activity in RAW-OC cells. Type of experiment: cell-based, mouse.
Another experiment concerns MCF-7 cells. Type of experiment: cell-based.

`C[C@]12CC[C@@H]3c4ccc(O)cc4CC[C@H]3[C@@H]1CC[C@@H]2O` [17β-estradiol]: in the experiment with MDA-MB-231 cells, the “cell proliferation (BrdU)” value was “do not significantly affect cell proliferation”. Also, the “activity of TRAP” value in experiment [1] is “superimposable decrease”.
With `O=C(c1ccc(OCCN2CCCCC2)cc1)c1c(-c2ccc(O)cc2)sc2cc(O)ccc12` [Raloxifene, raloxifene], the “effect on proliferation promoting activity of 17β-estradiol and spike” value with MCF-7 cells is reported as “blocked”. Besides, the “effect on the estradiol- or spike-induced decrease in TRAP activity” value in experiment [1] is “blocked”.
